Columns and labels:
AP sites in DNA = experiment: Cellular image of fluorescent A-modified AP sites; format: cell-based; conditions: A alone
Description: (§1) On the basis of a similar molecular reaction to MX, (e.g., a primary amine with the carbonyl group of the abasic site), we tested whether a compound (Compound A) would have the ability to bind to AP site generated by TMZ and enhance the killing effect of TMZ. A has a MX-like structure to bind to AP site and also has fluorescence molecules to provide a signal for direct detection of modified AP sites using cellular image. […] In in vitro study, we observed A at non-toxic concentrations (1 mM) sensitized cells to TMZ-cytotoxicity 2-3-fold. In a xenograft model, A (2 mg/kg) combined with TMZ (80 mg/kg) enhanced anti-tumor effect in HCT116 and DLD1, two xenograft tumors with very high resistance to TMZ. Tumor growth delays were 13 days in HCT116 and 12 days in DLD1 treated with the combination of A and TMZ over TMZ alone. Thus, A has a similar effect to MX on interruption of BER and can potentiate chemotherapeutic agents such as alkylating agents. Results are depicted in FIGS. 14-16.

AP-endonuclease (APE) = experiment: AP site cleavage by AP-endonuclease (APE); format: biochemical
Description: 2. AP sites cleavaged by AP-endonuclease (APE). […] The assay may be performed as follows (see also FIGS. 23A and B):
a. AP site is prepared by replacing single nucleoside with deoxyuridine in duplex oligonucleotides (40 mer).
b. Regular AP site is produced in the duplex oligonucleotides by human uracil DNA glycosylase (LIDGase, Trevigen, Gaithersburg, Md.) to remove the uracil residue.
c. To generate MX-adducted AP site substrates: the UDG-treated duplex oligonucleotides are mixed with 10 mM MX in buffer containing 10 mM KPO4, pH 7.1 and incubated at 37° C. After 30 min, the substrates are recovered by ethanol precipitation, lyophilized, resuspended in water, and stored at −20° C.
d. APE-cleavage reaction: DNA substrates containing either regular AP-sites or chemicalmodified AP sites are incubated with APE (Trevigen, Gaithersburg, Md.) for 30 min and reactants are precipitated with 100% cold ethanol, washed with 70% ethanol and resuspended in TE buffer. The reactants are resolved by denaturing 20% polyacrylamide gel electrophoresis and visualized by silver staining (Silver Staining Kit, Pharmacia Biotech).

[1] = system: DLD1 cells and HCT116 cells; experiment: Potentiation of TMZ cytotoxicity by compound A in tumor cells; format: cell-based
Description: as §1

[2] = system: AP sites in calf thymus DNA; experiment: Competitive AP site binding assayed by Aldehyde Reactive Probe (ARP)
Source text: 1. Analysis of chemical—modified AP Sites assayed by Aldehyde Reactive Probe (ARP). This is a competitive assay to measure the reactivity with AP site between ARP reagent (Dojindo Molecular Technologies Inc., Gaithersburg, Md.) and the screening compounds. ARP and MX have a similar reactivity with AP sites. They react specifically with an aldehyde group that is open ring form of the AP sites. Thus this assay will allow identification of compounds with potential to block AP site repair based on the binding affinity and efficiency to AP sites of screening compounds compared to ARP and MX.
a. AP site standard preparation: AP sites were produced in a calf thymus DNA by heat/acid-buffer solution. Intact calf thymus DNA was added to sodium citrate buffer (10 mM sodium citrate containing 10 mM NaH2PO4 and 10 mM NaCl, pH 5.0) and held at 70° C. for 30 min. The reaction was stopped by chilling rapidly on ice, and the DNA was then precipitated with cold ethanol, washed with 70% ethanol, dried, and resuspended in sterilized distilled water.
b. […] After NC membrane was rinsed with washing buffer containing NaCl (0.26 M), EDTA (1 mM), Tris-HCI (20 mM), and Tween 20 (1%), ARP-AP sites are visualized with ECL reagents (Amersham Corp.) (FIG. 22A) and quantitated by scanning densitometer (FIG. 22B).

## NNC(=S)Nc1ccc(-c2c3ccc(=O)cc-3oc3cc(O)ccc23)c(C(=O)O)c1 [Compound A]
AP sites in DNA
  fluorescence signal: no visualized fluorescence signal
AP-endonuclease (APE)
  cleavage of modified AP sites by APE: refractory to cleavage
[1]; 1 mM
  cytotoxicity of A alone: non-toxic
[1]; A at 1 mM
  sensitization to TMZ-cytotoxicity: 2-3 fold
[2]
  binding to AP sites assayed with ARP: able to bind to AP sites
